Results reported in patent US12605369B2, “Amido-substituted heterocyclic compounds and methods of use thereof for the treatment of herpes viruses” (Merck Sharp & Dohme LLC, priority 2019, dated 2026).
pEC50, pIC50: −log10 of the molar value. Read-outs that look alike come from different tables or passages of the source.

Assays:
[1] = biological target: T1, varicella zoster virus DNA polymerase (Varicella-zoster virus, UniProt P09252); assay: VZV polymerase assay (AlphaLISA, Example 15); assay type: biochemical; conditions: VZV polymerase 0.4 nM; 30 min pre-incubation; 60 min at 37° C.
T1 construct: made in house; host or cells: SF21 insect cells (baculovirus vector)
Method: (§1) CMV and VZW Polymerase Assays
(§2) Human cytomegalovirus and varicella zoster virus DNA polymerases were expressed via baculovirus vector in SF21 cells and purified. Heterodimeric nucleic acid substrate used in the herpesvirus polymerase reactions were generated by annealing a 59-mer template to a 17-mer digoxigenin-labeled primer. Polymerase (HCMV final concentration of 0.2 nM; VZV final concentration of 0.4 nM) was combined with an inhibitor compound or DMSO in assay buffer (10 mM HEPES, pH 7.5, 25 mM KCl, 25 mM NaCl, 5 mM MgCl2, 5% glycerol, 0.67 mg/ml bovine serum albumin, and 1 mM tris(2-carboxyethyl)phosphine)), and this mixture was pre-incubated for 30 minutes at room temperature in 384-well microtiter plates. The polymerization reaction was initiated by the addition of template/primer substrate (final concentration: 1.6 nM) and dNTPs (final concentration: 24 nM dCTP, 24 nMdGTP, 16 nM dATP, 16 nM dTTP, and 0.8 nM biotin-dUTP). After a 60 minute incubation period at 37° C., the reactions were terminated using quench buffer (25 mM HEPES pH 7.5, 100 mM NaCl, 0.25% Tween-20, 12 mM EDTA, and 1 mg/ml bovine serum albumin). Incorporation of biotinylated UTP was detected with 2.5-5 μg/mL anti-DIG AlphaLISA acceptor beads and 5-10 μg/mL streptavidin AlphaLISA donor beads (PerkinElmer). Compound effects were normalized to the window defined by the controls (DMSO only and pre-quenched wells) and were fit using a 4-parameter algorithm to report an IC50.

[2] = tested on: HSV-1 Strain F; assay: Viral qPCR assay, HSV-1 (Example 14); assay type: cell-based; conditions: Strain F in Vero or MRCS cells, 0.0005-0.004 pfu/cell, viral genome copy number by qPCR, read-out: HSV1 Cell EC50
Method: (§3) MRCS and Vero cells were obtained from ATCC and were maintained at 37° C./5% CO2/90% relative humidity in Minimal Essential Medium with 10% fetal bovine serum, […], 100 units/mL penicillin and 100 ug/mL streptomycin. Assay plates were prepared by dispensing compounds dissolved in DMSO into wells of 384 well collagen-coated plates using an ECHO acoustic dispenser. Each test compound was tested in a 10-point, serial 3-fold dilution. Controls included uninfected cells and infected cells treated only with DMSO. Assays were initiated by mixing selected cells, in suspension, with virus, and dispensing 50 μl/well infected cells to pre-plated compounds. Plates were incubated at 37° C./5% CO2/90% relative humidity for ˜72 hours to permit genomic replication, and infected cells were lysed by the addition of an equal volume of lysis buffer (10 mM Tris-HCl, pH8, 50 mM KCl, 2 mM MgCl2, 0.45% NP-40, 0.45% Tween-20, and 100 μg/mL proteinase K). An aliquot of the lysate was then transferred to a 384-well PCR plate and incubated at 56° C. for 1 hour, and then at 95° C. for 10 minutes. Levels of a viral gene were measured in 10 ul qPCR assays using TaqMan® Gene Expression Master Mix (Applied Biosystems) and an 7900HT Fast Real-Time PCR System with 384-Well Block Module. 7-point, serial 10-fold dilutions of a plasmid standard were run on each plate to generate a standard curve, and genome copies numbers were calculated by plotting experimental Ct onto linear regression of the standard curve. Compound effects on viral genome copy number were normalized to the window defined by the controls. Calculated % effects were fit using a 4-parameter algorithm, and EC50 was reported. • HCMV: Strain AD169 was assayed in MRC-5 cells and was used at 0.05-0.1 pfu/cell. The assays were performed in either growth media or in the same media with 50% fetal bovine serum. Primer-probe set was Thermo Fisher Assay ID=AIFATFK. • HSV-1: Strain F was assayed in Vero or MRCS cells and was used at 0.0005-0.004 pfu/cell in growth medium. Primer-probe set was Thermo Fisher Assay ID=AIBJZIB. • HSV-2: Strain G was assayed in Vero or MRCS cells and was used at 0.004-0.4 pfu/cell in growth medium. Primer-probe set was Thermo Fisher Assay ID=AICSXOJ.

[3] = biological target: T2, Human cytomegalovirus DNA polymerase (Human cytomegalovirus, UniProt P08546); assay: CMV polymerase assay (AlphaLISA, Example 15); assay type: biochemical; conditions: HCMV polymerase 0.2 nM; 30 min pre-incubation; 60 min at 37° C.
T2 construct: made in house; host or cells: SF21 insect cells (baculovirus vector)
Method: as §1, §2

[4] = tested on: HCMV Strain AD169; assay: Viral qPCR assay, HCMV (Example 14); assay type: cell-based; conditions: for pEC50: Strain AD169 in MRC-5 cells, 0.05-0.1 pfu/cell, ~72 hours, viral genome copy number by qPCR, growth media or 50% fetal bovine serum, read-out: CMV Cell EC50
Method: as §3

[5] = tested on: HSV-2 Strain G; assay: Viral qPCR assay, HSV-2 (Example 14); assay type: cell-based; conditions: Strain G in Vero or MRCS cells, 0.004-0.4 pfu/cell, viral genome copy number by qPCR, read-out: HSV2 Cell EC50
Method: as §3

[6] = Human alphaherpesvirus 1, Vero, 72 h
[7] = Human betaherpesvirus 5, AD169, MRC5, 72 h
[8] = Human alphaherpesvirus 2, Vero, 72 h

T2 sequence (P08546 whole entry): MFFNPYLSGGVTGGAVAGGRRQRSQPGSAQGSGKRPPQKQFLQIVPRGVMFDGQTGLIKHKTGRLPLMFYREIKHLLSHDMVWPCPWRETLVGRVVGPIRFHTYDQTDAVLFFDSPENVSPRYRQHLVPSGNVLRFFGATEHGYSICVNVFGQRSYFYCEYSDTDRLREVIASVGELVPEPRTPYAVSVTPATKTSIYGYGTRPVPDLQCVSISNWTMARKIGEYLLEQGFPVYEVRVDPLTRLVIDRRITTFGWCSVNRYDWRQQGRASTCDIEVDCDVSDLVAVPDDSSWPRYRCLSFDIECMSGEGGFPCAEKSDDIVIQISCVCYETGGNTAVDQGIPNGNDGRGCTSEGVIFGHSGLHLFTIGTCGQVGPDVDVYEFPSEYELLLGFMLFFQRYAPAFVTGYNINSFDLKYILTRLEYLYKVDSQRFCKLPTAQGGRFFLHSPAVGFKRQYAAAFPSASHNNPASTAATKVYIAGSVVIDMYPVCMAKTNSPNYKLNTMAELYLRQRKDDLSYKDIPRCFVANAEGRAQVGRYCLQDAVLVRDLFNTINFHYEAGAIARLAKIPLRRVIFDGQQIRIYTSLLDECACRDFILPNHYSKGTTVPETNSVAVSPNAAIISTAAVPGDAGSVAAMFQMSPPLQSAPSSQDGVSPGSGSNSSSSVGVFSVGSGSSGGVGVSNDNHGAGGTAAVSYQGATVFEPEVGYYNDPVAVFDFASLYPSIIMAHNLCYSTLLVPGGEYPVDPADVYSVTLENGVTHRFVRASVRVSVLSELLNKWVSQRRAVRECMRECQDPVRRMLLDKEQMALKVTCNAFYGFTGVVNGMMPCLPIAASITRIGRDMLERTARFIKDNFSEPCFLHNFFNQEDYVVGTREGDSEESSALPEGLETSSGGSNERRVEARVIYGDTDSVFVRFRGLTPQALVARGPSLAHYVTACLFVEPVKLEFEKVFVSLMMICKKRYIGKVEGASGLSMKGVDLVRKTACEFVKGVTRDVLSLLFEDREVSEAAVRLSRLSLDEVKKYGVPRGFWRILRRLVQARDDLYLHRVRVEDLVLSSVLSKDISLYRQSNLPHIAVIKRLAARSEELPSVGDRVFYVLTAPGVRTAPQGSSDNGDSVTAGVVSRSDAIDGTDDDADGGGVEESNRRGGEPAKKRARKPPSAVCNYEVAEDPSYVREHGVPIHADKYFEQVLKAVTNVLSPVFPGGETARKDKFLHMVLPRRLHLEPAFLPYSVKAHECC
T1 sequence (P09252 whole entry): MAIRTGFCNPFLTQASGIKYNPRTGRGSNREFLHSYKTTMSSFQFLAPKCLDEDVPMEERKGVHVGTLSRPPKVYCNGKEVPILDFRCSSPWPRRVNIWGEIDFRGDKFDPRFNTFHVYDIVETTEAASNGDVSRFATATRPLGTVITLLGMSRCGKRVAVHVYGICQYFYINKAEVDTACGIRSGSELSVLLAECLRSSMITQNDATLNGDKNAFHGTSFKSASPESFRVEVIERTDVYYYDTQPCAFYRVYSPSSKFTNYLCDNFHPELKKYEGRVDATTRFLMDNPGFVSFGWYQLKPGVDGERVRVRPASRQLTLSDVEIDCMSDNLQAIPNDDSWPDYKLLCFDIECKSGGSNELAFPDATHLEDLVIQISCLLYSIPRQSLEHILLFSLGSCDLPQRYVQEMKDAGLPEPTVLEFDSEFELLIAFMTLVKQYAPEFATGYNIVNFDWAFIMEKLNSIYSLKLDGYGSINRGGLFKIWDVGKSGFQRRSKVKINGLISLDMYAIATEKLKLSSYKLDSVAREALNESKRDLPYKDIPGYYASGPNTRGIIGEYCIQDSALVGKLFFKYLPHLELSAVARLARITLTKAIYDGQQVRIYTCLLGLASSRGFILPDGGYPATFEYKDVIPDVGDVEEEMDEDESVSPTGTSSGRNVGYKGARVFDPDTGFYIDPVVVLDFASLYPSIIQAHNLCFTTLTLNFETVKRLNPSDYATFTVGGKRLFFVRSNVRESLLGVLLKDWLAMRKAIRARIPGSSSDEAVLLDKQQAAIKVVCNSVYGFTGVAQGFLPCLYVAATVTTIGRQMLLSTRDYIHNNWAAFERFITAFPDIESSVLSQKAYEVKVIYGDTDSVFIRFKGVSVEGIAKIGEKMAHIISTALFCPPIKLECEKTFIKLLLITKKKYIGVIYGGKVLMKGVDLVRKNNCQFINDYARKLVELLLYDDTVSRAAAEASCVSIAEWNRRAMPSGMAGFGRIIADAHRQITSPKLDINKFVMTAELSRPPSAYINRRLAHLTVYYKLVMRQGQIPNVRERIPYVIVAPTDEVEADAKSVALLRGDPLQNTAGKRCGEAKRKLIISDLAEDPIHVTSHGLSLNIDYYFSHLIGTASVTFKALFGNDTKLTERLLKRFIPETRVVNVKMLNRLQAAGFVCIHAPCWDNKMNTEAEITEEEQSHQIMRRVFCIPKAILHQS

Row | Structure (SMILES) | pIC50 [1] | pEC50 [2, 6] | pIC50 [3] | pEC50 [4, 7] | pEC50 [5, 8] | EC50 ([4]; Human betaherpesvirus 5, AD169, MRC5, 72 h, read-out: CMV Cell EC50 (nM)) [nM] | pEC50 ([2]; ~72 hours) | pEC50 [4] | pEC50 ([5]; ~72 hours)
1 | COc1nc(N2CCC(F)(c3ccc(C#N)cc3)C2=O)ccc1C[C@H]1COC(=O)N1 (single isomer, unassigned) [Compound 8] | 7.47 | 6.02 | 8.00 | 6.36 | 6.05 | – | – | – | –
2 | COc1nc(N2CCN(c3ccc(C#N)c(F)c3)C2=O)ccc1C[C@H]1COC(=O)N1 [Compound 11] | – | – | 7.52 | – | – | 596 | – | – | –
3 | COCc1cc(C#N)ccc1CC(=O)Nc1ccc(C[C@H]2COC(=O)N2)c(OC)n1 [Compound 6] | 8.10 | 6.82 | 8.05 | 7.44 | 6.70 | – | – | – | –
4 | COc1nc(NC(=O)Cc2ccc(Cl)cc2CO)ccc1C[C@H]1COC(=O)N1 [Compound 3] | – | 6.40 | 7.92 | 6.75 | 6.30 | – | – | – | –
5 | COc1nc(NC(=O)C2CCc3cc(C#N)ccc3N2C)ccc1C[C@H]1COC(=O)N1 (stereo partly drawn) [Compound 30] | – | – | – | – | – | – | 5.13 | 5.57 | 4.97
6 | COc1nc(NC(=O)C2CCc3cc(C#N)ccc3C2)ccc1C[C@H]1COC(=O)N1 (stereo partly drawn) [Compound 31] | – | – | – | – | – | – | 4.15 | 4.95 | 4.32
7 | COc1nc(NC(=O)C2(C)CCc3cc(C#N)ccc3O2)ccc1C[C@H]1COC(=O)N1 (stereo partly drawn) [Compound 33] | – | – | – | – | – | – | 5.05 | 5.78 | 4.95
8 | COc1nc(NC(=O)C2Cc3ccc(C#N)cc3CN2)ccc1C[C@H]1COC(=O)N1 (stereo partly drawn) [Compound 36] | – | – | – | – | – | – | 5.71 | 5.78 | 4.95
9 | COc1nc(NC(=O)C2(C)CCc3cc(C#N)ccc3O2)ccc1C[C@H]1COC(=O)N1 (stereo partly drawn) [Compound 34] | – | – | – | – | – | – | < 4.10 | 4.40 | < 4.10
10 | COc1nc(NC(=O)C2CCc3cc(Cl)ccc3O2)ccc1C[C@H]1COC(=O)N1 (stereo partly drawn) [Compound 18] | 9.00 | 6.89 | 8.85 | 6.36 | 6.83 | – | – | – | –
11 | COc1nc(N2CCN(c3ccc(Cl)cc3)C2=O)ccc1C[C@H]1COC(=O)N1 [Compound 10] | – | 6.55 | 7.85 | 6.28 | 6.54 | – | – | – | –
12 | COc1nc(NC(=O)C2CCc3cc(C#N)ccc3C2)ccc1C[C@H]1COC(=O)N1 (stereo partly drawn) [Compound 32] | – | – | – | – | – | – | 6.93 | 7.14 | 6.76
13 | COc1nc(NC(=O)C2CN(C)c3cc(C#N)ccc3O2)ccc1C[C@H]1COC(=O)N1 (stereo partly drawn) [Compound 26] | – | – | – | – | – | – | 7.22 | 7.41 | 7.14
14 | COCc1cc(Cl)ccc1CC(=O)Nc1ccc(C[C@H]2COC(=O)N2)c(OC)n1 [Compound 5] | 7.74 | 6.78 | 7.92 | 6.94 | 6.50 | – | – | – | –
15 | COc1nc(NC(=O)C2CCc3cc(C#N)ccc3N2C)ccc1C[C@H]1COC(=O)N1 (stereo partly drawn) [Compound 29] | – | – | – | – | – | – | 5.45 | 6.46 | 5.30
